Experimental data from PubChem BioAssay (NCI).
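Cells were grown in 96-well plates and exposed to each compound for 48 hours at five concentrations; endpoints were interpolated linearly between bracketing concentrations, or set to the highest concentration if not reached. GI50 = concentration required for 50% inhibition of growth. TGI is the concentration that stops growth completely.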

Columns and labels:
Test in all cases: DTP human tumour cell line panel, 48 h
MOLT-4 leukemia = test system: MOLT-4 leukemia
SN12C renal = test system: SN12C renal
KM12 colon = test system: KM12 colon
SNB-75 CNS = test system: SNB-75 CNS
MDA-N = test system: MDA-N
SF-268 CNS = test system: SF-268 CNS
CAKI-1 renal = test system: CAKI-1 renal
EKVX NSCLC = test system: EKVX NSCLC
IGROV1 ovarian = test system: IGROV1 ovarian
MDA-MB-231 breast = test system: MDA-MB-231 breast

| SMILES | TGI (MOLT-4 leukemia) | TGI (SN12C renal) | TGI (KM12 colon) | TGI (SNB-75 CNS) | TGI (MDA-N) | TGI (SF-268 CNS) | TGI (CAKI-1 renal) | TGI (EKVX NSCLC) | TGI (IGROV1 ovarian) | TGI (MDA-MB-231 breast) | GI50 (MOLT-4 leukemia) | GI50 (SN12C renal) | GI50 (KM12 colon) | GI50 (SNB-75 CNS) | GI50 (SF-268 CNS) | GI50 (CAKI-1 renal) | GI50 (MDA-MB-231 breast) | GI50 (EKVX NSCLC) | GI50 (IGROV1 ovarian) |
| --- | --- | --- | --- | --- | --- | --- | --- | --- | --- | --- | --- | --- | --- | --- | --- | --- | --- | --- | --- |
| CCCCC1=C(C(=O)N2CCOCC2)C2(OCCO2)C1=O | > 100 µM | 32.7 µM | 55.9 µM | > 100 µM | 71.2 µM | 86.7 µM | 78.1 µM | > 100 µM | 37 µM | – | – | – | – | – | – | – | – | – | – |
| CC(C)N1CC2CC(CN(C(=O)c3ccccc3)C2)C1 | > 100 µM | > 100 µM | > 100 µM | > 100 µM | – | > 100 µM | > 100 µM | > 100 µM | > 100 µM | – | – | – | – | – | – | – | – | – | – |
| C=C1C(OC2O[C@@H]3O[C@@]4(C)CC[C@H]5[C@H](C)CC[C@@H](C2=C)[C@@]35O4)O[C@@H]2O[C@@]3(C)CC[C@H]4[C@H](C)CC[C@@H]1[C@@]24O3 (stereo not given in full) | > 50 µM | > 50 µM | > 50 µM | – | > 50 µM | > 50 µM | > 50 µM | > 50 µM | > 50 µM | > 50 µM | – | – | – | – | – | – | – | – | – |
| N#CC1(O)CCCCCCCCCCC1 | > 100 µM | > 100 µM | > 100 µM | – | > 100 µM | > 100 µM | > 100 µM | > 100 µM | > 100 µM | > 100 µM | – | – | – | – | – | – | – | – | – |
| COc1cccc2c1C(=O)c1c(O)c3c(c(O)c1C2=O)C[C@H](O)C[C@@H]3OC1CC(N)C(O)C(C)O1 (stereo not given in full) | 0.144 µM | – | 10.1 µM | 15.3 µM | – | 10.6 µM | 4.83 µM | 20.8 µM | 12.4 µM | 6.05 µM | – | – | – | – | – | – | – | – | – |
| CCOC(=O)C1(C#N)C(c2ccccc2)CC(O)(c2ccc(Cl)cc2)C(C(=O)c2ccc(Cl)cc2)C1c1ccccc1 (stereo not given) | > 100 µM | > 100 µM | > 100 µM | 48.9 µM | – | > 100 µM | > 100 µM | > 100 µM | > 100 µM | – | – | – | – | – | – | – | – | – | – |
| CS(=O)(=O)Nc1ccc2c(c1)N(S(C)(=O)=O)CC2CCl (stereo not given) | > 100 µM | > 100 µM | > 100 µM | > 100 µM | – | > 100 µM | > 100 µM | > 100 µM | > 100 µM | > 100 µM | – | – | – | – | – | – | – | – | – |
| O=C(/C=C/C(=O)N1CCCC1)N1CCCC1 | > 100 µM | > 100 µM | > 100 µM | – | > 100 µM | > 100 µM | > 100 µM | > 100 µM | > 100 µM | > 100 µM | – | – | – | – | – | – | – | – | – |
| S=C(N/N=C\C(=N/NC(=S)N1CCCCC1)c1ccccc1)N1CCCCC1 | – | 3.51 µM | 3.98 µM | 3.72 µM | > 100 µM | 3.72 µM | 4.66 µM | 3.31 µM | 3.45 µM | – | – | – | – | – | – | – | – | – | – |
| Cc1cc2c(O)c(c1)CN(CC(=O)O)Cc1cc(C)cc(c1O)CN(CC(=O)O)Cc1cc(C)cc(c1O)CN(CC(=O)O)C2 | > 100 µM | > 100 µM | > 100 µM | > 100 µM | > 100 µM | > 100 µM | > 100 µM | > 100 µM | – | > 100 µM | – | – | – | – | – | – | – | – | – |
| COC(=O)[C@@H]1CCCCC[C@H]2C(CO)=C(C)C(=O)C12 (stereo not given in full) | > 100 µM | > 100 µM | > 100 µM | > 100 µM | – | > 100 µM | > 100 µM | > 100 µM | > 100 µM | – | – | – | – | – | – | – | – | – | – |
| c1cncc(CC2(c3cc4ccccc4[nH]3)OCCO2)c1 | – | > 100 µM | > 100 µM | > 100 µM | > 100 µM | > 100 µM | > 100 µM | – | > 100 µM | > 100 µM | – | – | – | – | – | – | – | – | – |
| Cc1cc(C)c2c(=O)cc(-c3cccc(F)c3)[nH]c2n1 | > 53.5 µM | 20.3 µM | 13.3 µM | > 100 µM | – | > 93.3 µM | > 66.3 µM | > 100 µM | – | 4.17 µM | – | – | – | – | – | – | – | – | – |
| CSc1cc(=O)n2c3ccccc3c3ccnc1c32 | > 100 µM | > 100 µM | > 100 µM | > 94.3 µM | – | > 75.5 µM | – | 56.8 µM | > 79.1 µM | – | – | – | – | – | – | – | – | – | – |
| O=C1C=CC(=O)N1n1c(-c2ccccc2)n[nH]c1=O | > 100 µM | > 100 µM | – | – | > 100 µM | > 100 µM | > 100 µM | > 100 µM | > 100 µM | > 100 µM | – | – | – | – | – | – | – | – | – |
| Cc1ccc(C(=O)N/N=C(\N=Nc2ccccc2)c2ccc(N(C)C)cc2)cc1 | > 100 µM | > 100 µM | > 100 µM | – | > 100 µM | > 100 µM | > 100 µM | > 100 µM | > 100 µM | > 100 µM | – | – | – | – | – | – | – | – | – |
| C[C@]12CCC(=O)[C@@H](CCC3=CC(=O)C=CC3=O)[C@@H]1CCC2=O | > 100 µM | > 100 µM | 32 µM | 25.8 µM | > 52.8 µM | 39.5 µM | 27.7 µM | 47.5 µM | – | 49.2 µM | – | – | – | – | – | – | – | – | – |
| COc1ccc(C2C3=C(COC3=O)Oc3cc4c(cc32)OCO4)c(OC)c1 (stereo not given) | > 100 µM | > 100 µM | > 100 µM | 46.8 µM | – | > 100 µM | > 100 µM | > 100 µM | > 100 µM | > 100 µM | – | – | – | – | – | – | – | – | – |
| CCn1c2ccc(C(=O)CCCN3CCCCC3)cc2c2cc(C(=O)CCCN3CCCCC3)ccc21 | – | 20 µM | 8.76 µM | 8.26 µM | 5.7 µM | 18.6 µM | 8.54 µM | 15.8 µM | 8.73 µM | 4.74 µM | – | – | – | – | – | – | – | – | – |
| CC(C)(C)OC(=O)NC(Cc1ccccc1)NC(=O)NC(=O)OCc1ccccc1 (stereo not given) | > 100 µM | > 100 µM | > 100 µM | 73.2 µM | > 100 µM | > 100 µM | 64.1 µM | > 100 µM | > 100 µM | – | – | – | – | – | – | – | – | – | – |
| COc1ccc(-c2c3c(n(C4OC(CO)C(O)C(O)C4O)c(=S)c2C#N)CCC3)cc1 (stereo not given) | 85.4 µM | > 100 µM | > 100 µM | > 100 µM | > 100 µM | > 100 µM | > 100 µM | – | > 100 µM | > 100 µM | – | – | – | – | – | – | – | – | – |
| COc1cc(-c2n/c(=C\c3c(O)[nH]c4ccc(Cl)cc34)cc3c2=Nc2ccccc2-3)ccc1F | 3.32 µM | 3.6 µM | 5.01 µM | 4.6 µM | – | 4.65 µM | 8.66 µM | 27.2 µM | 5.17 µM | 3.22 µM | 1080 nM | 1780 nM | 2280 nM | 1690 nM | 2050 nM | 2550 nM | 1560 nM | 4.12 µM | 2070 nM |
| CCC1=C(C(C)=O)[C@@H]2CCCCC[C@@H](C(=O)OC)C2C1=O (stereo not given in full) | > 100 µM | > 100 µM | > 100 µM | > 100 µM | – | > 100 µM | > 100 µM | > 100 µM | > 100 µM | – | – | – | – | – | – | – | – | – | – |
